Read-outs that look alike come from different tables or passages of the source. Marks after values point to notes of the source that are not given here.
Key:
[1] = Plasma pharmacokinetics of sunitinib and N-desethyl sunitinib; type: in vivo, human; conditions: for half-life: n=1
ABCB1 = conditions: cited from earlier work
ABCG2 = conditions: cited from earlier work
CYP3A4 = conditions: cited from earlier work
[2] = tested on: solid or hematologic malignancy; assay: Response assessment after every two cycles; type: in vivo, human; conditions: 17 patients evaluable for response
[3] = phase III trial, 50mg/day, cited from earlier work
[4] = human, in vivo, 6 weeks (cycle 1)

With `CCNCCNC(=O)c1c(C)[nH]c(/C=C2\C(=O)Nc3ccc(F)cc32)c1C` [N-desethyl sunitinib] the “decrease in AUC0–24h compared to NNRTI” value ([1]; human, in vivo) was 40%, the “decrease in Cmax compared to NNRTI” value ([1]; human, in vivo) was 48% and the “increase in AUC0–24h compared to NNRTI” value ([1]; human, in vivo) was 390%. The “increase in Cmax compared to NNRTI” value ([1]; human, in vivo) was 410%, the “substrate for ABCB1 drug transporter” value (ABCB1) was “substrates” and the “substrate for ABCG2 drug transporter” value (ABCG2) was “substrates”.

For `O=C1Nc2ccc(Cl)cc2[C@@](C#CC2CC2)(C(F)(F)F)O1` [efavirenz], the “induction of CYP3A4” value (CYP3A4) is listed as “known inducer”.

For `CCN(CC)CCNC(=O)c1c(C)[nH]c(/C=C2\C(=O)Nc3ccc(F)cc32)c1C` [sunitinib, Sunitinib malate], the “correlation between hand-foot syndrome and elevated Cmin,ss” value ([1]; Mann–Whitney U-test, p=0.013) was “There was a correlation”, the Cmax ([1]; Ritonavir group, sunitinib 37.5 mg/day, Cycle 1 Day 1, mean±SD) was 19.9±5.9 (6) ng/mL and the T1/2 ([1]; Ritonavir group, sunitinib 37.5 mg/day, actual values (n=2)) was 86.8 h. The AUC(0-t) ([1]; human, in vivo, 37.5 mg/day) was 338 ± 99 ng·h/mL, the fraction unbound ([1]; human, in vivo, 37.5 mg/day) was 0.067 ± 0.021 and the half-life ([1]; human, plasma, oral, 25 mg/day, T1/2, Ritonavir group, sunitinib 25 mg/day) was 66 h. The Tmax ([1]; human, plasma, oral, 50 mg/day) was 7.5 h, the half-life ([1]; human, plasma, oral, 50 mg/day, T1/2, NNRTI group, sunitinib 50 mg/day) was 63.6 h and the “objective response to therapy” value [2] was “No patient experienced an objective response”. The “ALT/AST Elevation All Grade (%)” value (human, in vivo) was 2 (11), the “ALT/AST Elevation ≥G3 (%)” value (human, in vivo) was 0 (0) and the “Abdominal Pain All Grade (%)” value (human, in vivo) was 2 (11). For the same molecule, the “Abdominal Pain ≥G3 (%)” value (human, in vivo) was 0 (0), the “Anemia All Grade (%)” value (human, in vivo) was 3 (16) and the “Anemia ≥G3 (%)” value (human, in vivo) was 1 (5). The “Anorexia ≥G3 (%)” value (human, in vivo) was 0 (0), the “Constipation All Grade (%)” value (human, in vivo) was 2 (11) and the “Constipation ≥G3 (%)” value (human, in vivo) was 0 (0). For the same molecule, the “Cough ≥G3 (%)” value (human, in vivo) was 0 (0), the “Diarrhea All Grade (%)” value (human, in vivo) was 9 (47) and the “Diarrhea ≥G3 (%)” value (human, in vivo) was 1 (5). For the same molecule, the “Epistaxis ≥G3 (%)” value (human, in vivo) was 0 (0), the “Fatigue All Grade (%)” value (human, in vivo) was 8 (42) and the “Fatigue ≥G3 (%)” value (human, in vivo) was 0 (0). The “Headache All Grade (%)” value (human, in vivo) was 2 (11), the “Headache ≥G3 (%)” value (human, in vivo) was 0 (0) and the “Hypertension All Grade (%)” value (human, in vivo) was 4 (21). For the same molecule, the “Hypertension ≥G3 (%)” value (human, in vivo) was 0 (0), the “Hypopigmentation All Grade (%)” value (human, in vivo) was 2 (11) and the “Hypopigmentation ≥G3 (%)” value (human, in vivo) was 0 (0). For the same molecule, the “Mucositis All Grade (%)” value (human, in vivo) was 3 (16), the “Mucositis ≥G3 (%)” value (human, in vivo) was 0 (0) and the “Myalgia/Limb Pain All Grade (%)” value (human, in vivo) was 2 (11). The “Myalgia/Limb Pain ≥G3 (%)” value (human, in vivo) was 0 (0), the “Nausea/Vomiting All Grade (%)” value (human, in vivo) was 6 (32) and the “Nausea/Vomiting ≥G3 (%)” value (human, in vivo) was 0 (0). The “Neutropenia All Grade (%)” value (human, in vivo) was 10 (53), the “Neutropenia ≥G3 (%)” value (human, in vivo) was 6 (32) and the “Rash ≥G3 (%)” value (human, in vivo) was 0 (0). The “Thrombocytopenia All Grade (%)” value (human, in vivo) was 3 (16), the “Thrombocytopenia ≥G3 (%)” value (human, in vivo) was 0 (0) and the “Wound Dehiscence All Grade (%)” value (human, in vivo) was 2 (11). For the same molecule, the “Wound Dehiscence ≥G3 (%)” value (human, in vivo) was 1 (5), the “ALT/AST Elevation All Grade (%)” value (human, in vivo, 6 weeks) was 2 (11) and the “ALT/AST Elevation ≥G3 (%)” value (human, in vivo, 6 weeks) was 0 (0). For the same molecule, the “Constipation All Grade (%)” value (human, in vivo, 6 weeks) was 1 (5), the “Constipation ≥G3 (%)” value (human, in vivo, 6 weeks) was 0 (0) and the “Diarrhea All Grade (%)” value (human, in vivo, 6 weeks) was 8 (42). For the same molecule, the “Diarrhea ≥G3 (%)” value (human, in vivo, 6 weeks) was 0 (0), the “Fatigue All Grade (%)” value (human, in vivo, 6 weeks) was 7 (37) and the “Fatigue ≥G3 (%)” value (human, in vivo, 6 weeks) was 0 (0). For the same molecule, the “Hypertension All Grade (%)” value (human, in vivo, 6 weeks) was 3 (16), the “Hypertension ≥G3 (%)” value (human, in vivo, 6 weeks) was 0 (0) and the “Mucositis All Grade (%)” value (human, in vivo, 6 weeks) was 2 (11). For the same molecule, the “Mucositis ≥G3 (%)” value (human, in vivo, 6 weeks) was 0 (0), the “Nausea/Vomiting All Grade (%)” value (human, in vivo, 6 weeks) was 3 (16) and the “Nausea/Vomiting ≥G3 (%)” value (human, in vivo, 6 weeks) was 0 (0). The “Anemia All Grade (%)” value [4] was 2 (11), the “Anemia ≥G3 (%)” value [4] was 1 (5) and the “Neutropenia All Grade (%)” value [4] was 10 (53). For the same molecule, the “Neutropenia ≥G3 (%)” value [4] was 5 (26), the “Thrombocytopenia All Grade (%)” value [4] was 2 (11) and the “Thrombocytopenia ≥G3 (%)” value [4] was 0 (0). For the same molecule, the “Wound Dehiscence All Grade (%)” value [4] was 2 (11), the “Wound Dehiscence ≥G3 (%)” value [4] was 1 (5) ^# and the recommended dose (patients on ritonavir, 4 week on/2 week off schedule) was 37.5 mg/day. The MTD (patients on ritonavir, daily, 4 weeks on/2 weeks off) was 37.5 mg, the “rate of grade 3 or 4 neutropenia” value ([3]; gastrointestinal stromal tumors) was 10% and the “rate of grade 3 or 4 neutropenia” value ([3]; primitive neuroectodermal tumors) was 16%. The “rate of grade 3 or 4 neutropenia” value ([3]; renal cell carcinoma) was 17%, the “substrate for ABCB1 drug transporter” value (ABCB1) was “substrates” and the “substrate for ABCG2 drug transporter” value (ABCG2) was “substrates”.

From article PMC4038645 (Cancer, 2014)
